{"source": "patent US12016958B2", "about": "“Method for delivering an agent to posterior segment of an eye and uses thereof” (NANO TARGETING & THERAPY BIOPHARMA INC., priority 2021, dated 2024)", "experiment": "Solubility of AXT in water", "type": "physicochemical", "data": [{"smiles": "CNC(=O)c1ccccc1Sc1ccc2c(/C=C/c3ccccn3)n[nH]c2c1", "note": "[AXT, Axitinib]", "values": [{"measurement": "Solubility in water", "result": "poorly soluble in water"}]}]}
